Laboratory results: article PMC8044178, “Structural basis of norepinephrine recognition and transport inhibition in neurotransmitter transporters” (Nature Communications, 2021)
“And” between values parts separate entries of the source, which are not always exact repeats. Identical values can stand only once.

What was measured:
[1] = tested on: dDAT D121G/S426M; conditions: cited from earlier work
[2] = target: WT dDAT; conditions: read-out: nisoxetine-binding affinity Kd; cited from earlier work
[3] = target: T1, dDATNET (Drosophila melanogaster, UniProt Q7K4Y6, D121G/DEL162-202/F471L/L415A/S426M/V74A); assay: [3H] nisoxetine binding, scintillation proximity assay, purified dDATNET; conditions: for Specific CPM/p.mole protein: DAT_NET, single replicates
T1 construct: GFP-8x-His (C); made in house; host or cells: HEK293S GnTI- cells, BacMam baculovirus transduction
Procedure: (§1) Binding assays were performed with 20 nM of purified dDAT protein by scintillation proximity assay. For determining nisoxetine Kd, [^3H] Nisoxetine (Perkin Elmer) (in 1:5 molar ratio) was used in the range of 0.1 nM to 500 nM with 100 µM desipramine added to the control samples. Competition assays were done with 50 nM [^3H] […] The assays were done in 1 mM DDM, 0.2 mM CHS, 20 mM Tris-Cl (pH 8), 300 mM NaCl and 5% glycerol. The background values were subtracted to plot the final curves in GraphPad prism v5.0.1 and the Kd values were calculated. The IC50 values obtained from binding competition assays were used to deduce the Ki values by Cheng–Prusoff’s equation.

[4] = target: T2, dDATmfc (Drosophila melanogaster, UniProt Q7K4Y6, DEL162-202/F471L/L415A/V74A); assay: [3H] nisoxetine binding, scintillation proximity assay, purified dDATmfc; conditions: for Specific CPM/p.mole protein: DATmfc, single replicates
T2 construct: GFP-8x-His (C); made in house; host or cells: HEK293S GnTI- cells, BacMam baculovirus transduction
Procedure: as §1

[5] = target: hNET; conditions: read-out: nisoxetine-binding affinity Kd; cited from earlier work

Row | SMILES | increment in ability to compete for nisoxetine / affinity with hNET-like mutations D121G and S426M in subsite B [1] | Kd [2] | Specific CPM/p.mole protein ([3]; Nisox 0.1 nM) | Specific CPM/p.mole protein ([3]; Nisox 100 nM) | Specific CPM/p.mole protein ([3]; Nisox 300 nM) | Specific CPM/p.mole protein ([3]; Nisox 500 nM) | Kd ([3]; Nisoxetine Kd, dDATNET) | Kd ([3]; dissociation constants (Kd) for nisoxetine, range over the dDAT constructs used in this study (dDATNET, dDATmfc)) | Kd [4] | Specific CPM/p.mole protein ([4]; Nisox 0.1 nM) | Specific CPM/p.mole protein ([4]; Nisox 1 nM) | Specific CPM/p.mole protein ([4]; Nisox 3 nM) | Specific CPM/p.mole protein ([4]; Nisox 10 nM) | Specific CPM/p.mole protein ([4]; Nisox 30 nM) | Specific CPM/p.mole protein ([4]; Nisox 100 nM) | Specific CPM/p.mole protein ([4]; Nisox 300 nM) | Specific CPM/p.mole protein ([4]; Nisox 500 nM) | Kd [5]
1 | COC(=O)[C@H]1[C@@H](OC(=O)c2ccccc2)C[C@@H]2CC[C@H]1N2C [cocaine] | 10 fold |  |  |  |  |  |  |  |  |  |  |  |  |  |  |  |  | 
2 | CNCCC(Oc1ccccc1OC)c1ccccc1 (stereo not drawn) [nisoxetine] |  | 5 nM | 20 CPM/p.mole protein | 565 CPM/p.mole protein and 636 CPM/p.mole protein and 590 CPM/p.mole protein and 524 CPM/p.mole protein and 548 CPM/p.mole protein and 546 CPM/p.mole protein and 490 CPM/p.mole protein and 531 CPM/p.mole protein and 494 CPM/p.mole protein | 687 CPM/p.mole protein and 533 CPM/p.mole protein (2×) and 630 CPM/p.mole protein and 583 CPM/p.mole protein and 563 CPM/p.mole protein and 581 CPM/p.mole protein and 730 CPM/p.mole protein and 516 CPM/p.mole protein | 735 CPM/p.mole protein and 683 CPM/p.mole protein and 709 CPM/p.mole protein and 618 CPM/p.mole protein and 586 CPM/p.mole protein and 593 CPM/p.mole protein and 630 CPM/p.mole protein and 670 CPM/p.mole protein and 642 CPM/p.mole protein | 2.79 ± 0.27 nM | 2.8 to 3.8 nM | 3.82 ± 0.39 nM | 7 CPM/p.mole protein and 10 CPM/p.mole protein and 3 CPM/p.mole protein and 24 CPM/p.mole protein and 15 CPM/p.mole protein (2×) and 14 CPM/p.mole protein and 9 CPM/p.mole protein and 6 CPM/p.mole protein | 126 CPM/p.mole protein and 128 CPM/p.mole protein and 141 CPM/p.mole protein and 114 CPM/p.mole protein and 102 CPM/p.mole protein and 95 CPM/p.mole protein and 97 CPM/p.mole protein and 78 CPM/p.mole protein and 120 CPM/p.mole protein | 292 CPM/p.mole protein and 269 CPM/p.mole protein and 300 CPM/p.mole protein and 210 CPM/p.mole protein and 245 CPM/p.mole protein and 211 CPM/p.mole protein and 113 CPM/p.mole protein and 184 CPM/p.mole protein and 198 CPM/p.mole protein | 455 CPM/p.mole protein (2×) and 499 CPM/p.mole protein and 413 CPM/p.mole protein (2×) and 477 CPM/p.mole protein and 371 CPM/p.mole protein (2×) and 397 CPM/p.mole protein | 491 CPM/p.mole protein and 537 CPM/p.mole protein and 503 CPM/p.mole protein and 506 CPM/p.mole protein and 442 CPM/p.mole protein (2×) and 439 CPM/p.mole protein and 427 CPM/p.mole protein and 408 CPM/p.mole protein | 566 CPM/p.mole protein and 545 CPM/p.mole protein and 533 CPM/p.mole protein and 507 CPM/p.mole protein and 558 CPM/p.mole protein and 473 CPM/p.mole protein and 465 CPM/p.mole protein and 441 CPM/p.mole protein and 405 CPM/p.mole protein | 627 CPM/p.mole protein and 611 CPM/p.mole protein and 570 CPM/p.mole protein and 569 CPM/p.mole protein and 527 CPM/p.mole protein and 520 CPM/p.mole protein and 528 CPM/p.mole protein and 490 CPM/p.mole protein and 436 CPM/p.mole protein | 632 CPM/p.mole protein and 609 CPM/p.mole protein and 595 CPM/p.mole protein and 628 CPM/p.mole protein and 619 CPM/p.mole protein and 565 CPM/p.mole protein and 554 CPM/p.mole protein and 465 CPM/p.mole protein and 467 CPM/p.mole protein | 1.9 nM
